Data taken from patent US9271978B2 (Zenith Epigenetics Corp., priority 2012, dated 2016).

How the values were obtained:
hIL-6 mRNA = test: Inhibition of hIL-6 mRNA transcription in U937 cells; format: cell-based, human; parameters: key: Active: Compounds with an IC50 value less than 30 μM were deemed to be active.; Not Active: Compounds with an IC50 value less than 30 μM were deemed to be active; conditions: LPS stimulation, active = IC50 <30 μM
How it was run: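 U937 cells differentiated 3 days with 60 ng/mL PMA, pretreated 1 h with compound, then stimulated with 1 ug/mL E. coli LPS for 3 h at 37° C. hIL-6 mRNA quantified by one-step qRT-PCR, Ct normalized to internal control, expressed as fold induction relative to control.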

ApoA-I mRNA = test: Up-regulation of hApoA-1 mRNA transcription in Huh7 cells; format: cell-based, human; parameters: key: Active: Compounds with an EC170 value less than 30 μM were deemed to be active; conditions: 48 h treatment, ApoA-I mRNA by real-time PCR, Active = EC170 less than 30 μM
Protocol: In this example, ApoA-I mRNA in tissue culture cells was quantitated to measure the transcriptional up-regulation of ApoA-I when treated with a compound of the present disclosure.
Huh7 cells (2.5×10^5 per well) were plated in a 96-well plate using 100 μL DMEM per well, (Gibco DMEM supplemented with penicillin/streptomycin and 10% FBS), 24 h before the addition of the compound of interest. After 48 h treatment, the spent media was removed from the Huh-7 cells and placed on ice (for immediate use) or at −80° C. (for future use) with the “LDH cytotoxicity assay Kit II” from Abcam. The cells remaining in the plate were rinsed with 100 μL PBS.
Then 85 μL of cell lysis solution was added to each well and incubated for 5-10 min at room temperature, to allow for complete cell lysis and detachment. mRNA was then prepared using the “mRNA Catcher PLUS plate” from Life Technologies, according to the protocol supplied. After the last wash, as much wash buffer as possible was aspirated without allowing the wells to dry. Elution Buffer (E3, 80 μL) was then added to each well. mRNA was then eluted by incubating the mRNA Catcher PLUS plate with Elution Buffer for 5 min at 68° C., and then 1 min at 4° C. Catcher plates with mRNA eluted were kept on ice for use or stored at −80° C.
The eluted mRNA isolated was then used in a one-step real-time PCR reaction, using components of the Ultra Sense Kit together with Life Technologies primer-probe mixes. Real-time PCR data was analyzed, using the Ct values, to determine the fold induction of each unknown sample, relative to the control (that is, relative to the control for each independent DMSO concentration).
Compounds with an EC170 value less than 30 μM were deemed to be active.

[1] = test system: human AML MV-4-11 (CRL-9591) cells; test: Inhibition of cell proliferation in MV4-11 cells; format: cell-based; parameters: key: Active: Compounds with an IC50 value less than 30 μM were deemed to be active.; Not Active: Compounds with an IC50 value less than 30 μM were deemed to be active; conditions: human AML MV-4-11 cells, 72 h; active = IC50 <30 μM
How it was run: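 Exponentially growing MV-4-11 cells (5×10^4/well) were treated immediately with two-fold dilutions of compound from 30 μM to 0.2 μM, in triplicate, for 72 h at 37° C, 5% CO2. Viability was measured by MTS absorbance at 490 nm after 3–4 h. Proliferation relative to DMSO after blank correction gave IC50.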

[2] = target: T1, second bromodomain of Brd2 (BRD2(2)) (Homo sapiens, UniProt P25440); test: Inhibition of tetra-acetylated histone H4 binding to Brd2 bromodomain 2 (TR-FRET); parameters: key: Active: Compounds with an IC50 value less than 30 μM were deemed to be active.; Not Active: Compounds with an IC50 value less than 30 μM were deemed to be active; conditions: tetra-acetylated histone H4 peptide, active = IC50 <30 μM
T1 construct: made in house; host or cells: E. coli BL21 (DE3)
T1 sequence (P25440 344-453 limits assumed): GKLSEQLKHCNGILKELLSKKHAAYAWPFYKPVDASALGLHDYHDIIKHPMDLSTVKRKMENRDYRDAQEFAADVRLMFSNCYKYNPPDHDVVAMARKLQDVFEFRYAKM
How it was run: (§1)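 N-terminally His-tagged bromodomains (200 nM), expressed in E. coli, were incubated with biotinylated tetra-acetylated histone H4 peptide (25-50 nM), Eu-cryptate streptavidin and XL665 anti-His antibody in HEPES pH 7.4 buffer with KF, 0.2% DMSO, 2 h at room temperature. Inhibition read as decreased 665/620 nm TR-FRET; IC50 from dose-response curves.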

c-myc = test: Inhibition of c-myc expression in MV4-11 cells (mRNA, real-time PCR); format: cell-based; parameters: key: Active: Compounds with an IC50 value less than 30 μM were deemed to be active.; Not Active: Compounds with an IC50 value less than 30 μM were deemed to be active; conditions: Human AML MV4-11 cells, 3 h incubation
How it was run: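 MV4-11 cells (2.5×10^4) treated with compound or 0.1% DMSO for 3 h at 37 °C. c-myc mRNA measured by RT real-time PCR duplexed with cyclophilin. IC50 from dose–response curve.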

[3] = target: T2, Brd4 bromodomain 1 (BRD4(1)) (Homo sapiens, UniProt O60885); test: Inhibition of tetra-acetylated histone H4 binding to Brd4 bromodomain 1 (TR-FRET); parameters: key: Active: Compounds with an IC50 value less than 30 μM were deemed to be active.; Not Active: Compounds with an IC50 value less than 30 μM were deemed to be active; conditions: tetra-acetylated histone H4 peptide, active = IC50 <30 μM
T2 construct: Illustrative results with the first bromodomain of Brd4; made in house; host or cells: E. coli BL21 (DE3)
How it was run: as §1

IL-6 activity (IC50 <30 μM) (hIL-6 mRNA) | Cell Proliferation activity (IC50 <30 μM) [1] | FRET activity (IC50 <30 μM) BRD2(2) [2] | c-myc activity (IC50 <30 μM) (c-myc) | FRET activity (IC50 <30 μM) BRD4(1) [3] | Compound | ApoA-1 activity (EC170 <30 μM) (ApoA-I mRNA)
Active | Active | Active | Active | Active | Cc1noc(C)c1-c1ccc(=O)n(Cc2ccc(OC(F)(F)F)cc2)c1 [Example 5, 5-(3,5-Dimethylisoxazol-4-yl)-1-(4-(trifluoromethoxy)benzyl)pyridin-2(1H)-one] | Active
Active | Not Active | Active | Not Active | Active | Cc1noc(C)c1-c1ccc(=O)n(Cc2ccc(C(N)=O)cc2)c1 [Example 13, 4-((5-(3,5-Dimethylisoxazol-4-yl)-2-oxopyridin-1(2H)-yl)methyl)benzamide] | Active
Active | Active | Active | Not Active | Active | Cc1noc(C)c1-c1ccc(=O)n(Cc2ccccc2)n1 [Example 14, 2-Benzyl-6-(3,5-dimethylisoxazol-4-yl)pyridazin-3(2H)-one] | Active
Active | Not Active | Active | Active | Active | COc1cc(-c2ccc(=O)n(Cc3cccc(NC(C)=O)c3)n2)cc(OC)c1OC [Example 17, N-(3-((6-Oxo-3-(3,4,5-trimethoxyphenyl)pyridazin-1(6H)-yl)methyl)phenyl)acetamide] | Active
Active | Active | Active | Active | Active | Cc1noc(C)c1-c1ccc(=O)n(C(C)c2ccccc2)n1 (stereo not shown) [Example 19, 6-(3,5-Dimethylisoxazol-4-yl)-2-(1-phenylethyl)pyridazin-3(2H)-one] | Active
Active | Active |  | Active | Active | Cc1noc(C)c1-c1cc(N)c(=O)n(Cc2ccc(Cl)c(Cl)c2)c1 [Example 213, 3-amino-1-(3,4-dichlorobenzyl)-5-(3,5-dimethylisoxazol-4-yl)pyridin-2(1H)-one] | Active
Active | Active |  | Active | Active | Cc1noc(C)c1-c1cc(N)c(=O)n(Cc2nccs2)c1 [Example 215, 3-amino-5-(3,5-dimethylisoxazol-4-yl)-1-(thiazol-2-ylmethyl)pyridin-2(1H)-one] | Active
Active | Active |  | Active | Active | Cc1noc(C)c1-c1cc(N)c(=O)n(Cc2ccc(C#N)cc2)c1 [Example 216, 4-((3-amino-5-(3,5-dimethylisoxazol-4-yl)-2-oxopyridin-1(2H)-yl)methyl)benzonitrile] | Active
Active | Active |  | Active | Active | COc1ccc(Cn2cc(-c3c(C)noc3C)cc(N)c2=O)cc1 [Example 220, 3-amino-5-(3,5-dimethylisoxazol-4-yl)-1-(4-methoxybenzyl)pyridin-2(1H)-one] | Active
Active | Active |  | Active | Active | Cc1noc(C)c1-c1cc(N)c(=O)n(Cc2ccc(Cl)s2)c1 [Example 222, 3-amino-1-((5-chlorothiophen-2-yl)methyl)-5-(3,5-dimethylisoxazol-4-yl)pyridin-2(1H)-one] | Active
Active | Active |  | Active | Active | Cc1noc(C)c1-c1cc(Nc2cncc(F)c2)c(=O)n(Cc2ccccc2)c1 [Example 223, 1-benzyl-5-(3,5-dimethylisoxazol-4-yl)-3-((5-fluoropyridin-3-yl)amino)pyridin-2(1H)-one] | Active
Active | Active |  | Active | Active | Cc1noc(C)c1-c1cc(N)c(=O)n(Cc2ccc(OC(F)(F)F)cc2)c1 [Example 226, 3-amino-5-(3,5-dimethylisoxazol-4-yl)-1-(4-(trifluoromethoxy)benzyl)pyridin-2(1H)-one] | Active
Active | Active |  | Active | Active | Cc1noc(C)c1-c1cc(N)c(=O)n(Cc2ccccc2Cl)c1 [Example 227, 3-amino-1-(2-chlorobenzyl)-5-(3,5-dimethylisoxazol-4-yl)pyridin-2(1H)-one] | Active
Active | Active |  | Active | Active | Cc1noc(C)c1-c1cc(N)c(=O)n(Cc2ccc(C(F)(F)F)cc2)c1 [Example 228, 3-amino-5-(3,5-dimethylisoxazol-4-yl)-1-(4-(trifluoromethyl)benzyl)pyridin-2(1H)-one] | Active
Active | Active |  | Active | Active | Cc1noc(C)c1-c1cc(C(N)=O)c(=O)n(Cc2ccccc2)c1 [Example 230, 1-Benzyl-5-(3,5-dimethylisoxazol-4-yl)-2-oxo-1,2-dihydropyridine-3-carboxamide] | Active
Active | Active |  | Active | Active | Cc1noc(C)c1-c1cc(N)c(=O)n(Cc2ccc(Cl)cc2)n1 [Example 233, 4-amino-2-(4-chlorobenzyl)-6-(3,5-dimethylisoxazol-4-yl)pyridazin-3(2H)-one] | Active
